From patent publication US4652547A (Eli Lilly and Company, priority 1984, dated 1987)
Where two headings read alike, the source gives them in different places.

Assays:
[1] = Method: (§1) J. Physiol. 237:E214-E223 (1979). With this technique, an antecubital vein is cannulated in an antegrade manner to administer the infusates. A dorsal hand vein is cannulated in a retrograde fashion and kept in a warming device (70° C.) to facilitate venous sampling and provide arterialized venous blood. After insertion of the catheters, [3--3H]-glucose is infused for at least 30 minutes before initiating the hormone infusion. At the onset of hormone infusion, a priming dose of either insulin or proinsulin is administered during the initial 10 minutes in a logarithmically decreasing manner to acutely raise the serum hormone level. The amount of insulin or proinsulin given during this initial 10 minute period is roughly twice that given during each subsequent 10 minute interval by a continuous hormone infusion. The serum glucose is maintained between 80 and 90 mg/dl throughout the study period with a coefficient of variation of less than 5% by means of a variable rate of infusion of 20% dextrose. The overall glucose disposal rate is assessed isotopically for each 20 minute interval of the study.
Each subject underwent a total of 8 euglycemic glucose clamp studies, each performed on a separate day. Insulin infusion rates of 15, 40, 120, and 240 mU/M2/min were utilized to construct a dose response curve for insulin action. With this approach an attempt was made to achieve steady state insulin concentrations of 40 to 800 μU/ml (Table 1). Each subject was also studied with four different proinsulin infusions. […] Hepatic glucose output was quantitated in the basal state and during each clamp study using a primed continuous infusion of [3--3H]glucose. […] The dose response relationship for insulin and proinsulinmediated suppression of hepatic glucose output was determined by calculating the percent suppression of basal hepatic glucose output at each steady state hormone concentration obtained during the euglycemic clamp studies.

hepatic glucose output = test: Euglycemic glucose-clamp studies: suppression of hepatic glucose output; format: in vivo, human
Method: as §1, with “The amount of insulin or proinsulin given during this initial 10 minute period is roughly twice that given during each subsequent 10 minute interval by a continuous hormone infusion. The serum glucose is maintained between 80 and 90 mg/dl throughout the study period with a coefficient of variation of less than 5% by means of a variable rate of infusion of 20% dextrose.” left out
Each subject underwent a total of 8 euglycemic glucose clamp studies, each performed on a separate day. […] Hepatic glucose output was quantitated in the basal state and during each clamp study using a primed continuous infusion of [3--3H]glucose. […] The dose response relationship for insulin and proinsulinmediated suppression of hepatic glucose output was determined by calculating the percent suppression of basal hepatic glucose output at each steady state hormone concentration obtained during the euglycemic clamp studies.

glucose disposal = test: Euglycemic glucose-clamp studies: glucose disposal; format: in vivo, human
Method: Ten healthy control subjects (five female and five male) ranging in age from 25-40 years (mean age=29±3 years) with mean relative body weights of 0.96+0.02 were used.
With this technique, an antecubital vein is cannulated in an antegrade manner to administer the infusates. A dorsal hand vein is cannulated in a retrograde fashion and kept in a warming device (70° C.) to facilitate venous sampling and provide arterialized venous blood. After insertion of the catheters, [3--3H]-glucose is infused for at least 30 minutes before initiating the hormone infusion. At the onset of hormone infusion, a priming dose of either insulin or proinsulin is administered during the initial 10 minutes in a logarithmically decreasing manner to acutely raise the serum hormone level. The amount of insulin or proinsulin given during this initial 10 minute period is roughly twice that given during each subsequent 10 minute interval by a continuous hormone infusion. […] The overall glucose disposal rate is assessed isotopically for each 20 minute interval of the study.
On one day, each subject received a 5.0 μg/M2/min (120 mU/M2/min) insulin infusion over a 6 hour period. […] Each proinsulin infusion was carried out for 300 minutes, with the quantitation of its biological effects based on measurements made during the 5th hour of each study. […]

[2] = remark: listed apart in the source
Excerpt: (§2) At this point, the hormone infusion was abruptly stopped, and the glucose concentration was maintained constant until the biologic effects of the infused hormone were no longer detectable.

[3] = system: peripheral glucose uptake; test: Kinetics of activation and deactivation: peripheral glucose uptake; format: in vivo, human
Excerpt: Marked differences between the two hormones were noted when biologic activity was studied.
as §2

[4] = system: hepatic glucose output (HGO); test: Kinetics of activation and deactivation: hepatic glucose output (HGO); format: in vivo, human
Excerpt: as §2

[5] = system: hepatic glucose production; test: Subcutaneous administration to Type II subjects: hepatic glucose production; format: in vivo, human; settings: 0.2 U/kg s.c.
[6] = Hormone activity used for dosing; settings: basis for administered amounts
HGO = system: HGO
Excerpt: For example, in non-insulin dependent diabetes mellitus (NIDDM), one of the major metabolic abnormalities that maintains the resultant hyperglycemic state is accelerated hepatic glucose production.

[7] = 0.2 U/kg s.c., five Type II subjects
[8] = system: insulin-degrading proteases; settings: proteases at subcutaneous injection site of certain diabetics
fat cells = settings: e.g. fat cells; cited from earlier work
plasma glucose = test: Response of fasting Type II diabetic patients: plasma glucose and hypoglycemia; settings: 0.2 U/kg s.c.
[9] = Study A: insulin 15 mU/M^2/min, proinsulin 2.75 μg/M^2/min

## human proinsulin
[1]; infusion A: insulin 0.63 μg/M^2/min, proinsulin 2.75 μg/M^2/min
  Steady State Hormone Levels (Mean ± SEM): 2.55 ± 0.16 pmol/mL
[1]; infusion B: insulin […]^2/min, proinsulin 7.5 μg/M^2/min
  Steady State Hormone Levels (Mean ± SEM): 6.24 ± 0.49 pmol/mL
[1]; infusion C: insulin 5.0 μg/M^2/min, proinsulin 22.5 μg/M^2/min
  Steady State Hormone Levels (Mean ± SEM): 21.2 ± 1.4 pmol/mL
[1]; infusion D: insulin 10.0 μg/M^2/min, proinsulin 45.0 μg/M^2/min
  Steady State Hormone Levels (Mean ± SEM): 40.0 ± 1.9 pmol/mL
Hepatic glucose output; [9]
  Suppression of Hepatic Glucose Output (Mean ± SE): 80 ± 6%
Hepatic glucose output; steady state serum concentration, euglycemic clamp
  Hormone concentration required to achieve 90% suppression of hepatic glucose output: 3.35 pmol/mL
Glucose disposal; 5 subjects, insulin 5.0 μg/M2/min over 6 hours, proinsulin 22.5 μg/M2/min over 8 hours
  Time to reach steady state rates of glucose disposal: ≤ 5 h
Glucose disposal; [9]
  Glucose Disposal Rate (Mean ± SE): 122 ± 11 mg/M^2/min
[2]; after stopping 5 hour infusion (human insulin 0.55, human proinsulin 2.75 μg/M^2/min)
  t 1/2 of clearance from the circulation: 0.333 h
[2]; after stopping infusion
  Time by which hormone concentrations are below biologically effective values: ≤ 90 minutes
[2]; primed continuous infusion
  Initial volume of distribution compared to human insulin: much greater
  Time to steady state hormone concentration: 90 to 120 min
[2]; primed continuous infusion, all infusion rates
  Time of initial peak of hormone concentration: no initial peak of hormone concentration was observed
[3]; after stopping 5 hour infusion
  t 1/2 of deactivation of effects on glucose disposal: 1.45 ± 0.233 h
[3]; after stopping infusion
  Decay of effect to stimulate glucose disposal, times more slowly than human insulin: 2.2 times
[3]; following cessation of infusion
  Time for glucose disposal rates to return to basal: 160 min
[3]; hormone infusion
  Time for effect to stimulate glucose disposal to reach steady state: > 5 h
[4]; after stopping 5 hour infusion
  t 1/2 of deactivation of effect to inhibit HGO: 3.83 ± 0.317 h
[4]; after stopping infusion
  Time for HGO to return to baseline values, by extrapolation of the curve: > 6 h
  Time until decline in effect to suppress HGO could be detected: 120 min
[5]
  Effect on hepatic glucose production: suppressed into the normal range
  Time of maximum suppression of hepatic glucose production: 264 ± 31 min
[5]; basal 3.83±0.6
  Minimum hepatic glucose production: 1.21 ± 0.2 mg/kg/min
[6]
  Hormone activity: 4 IU/mg
HGO; NIDDM subjects, circulating concentration approximately 1.5 2 pmol/ml
  Expected suppression of HGO: approximately 50%
HGO; sustained level of 1.5-2 pmol/ml for about 3 hours, CSII or single s.c. injection
  Expected duration of adequate glycemic control: 8 to 10 h
[7]
  Mean peak hormone blood level: 6.8 pmol/mL
  Time of mean peak hormone blood level: 230 ± 33 min
[8]
  Degradation by insulin-degrading proteases: not degraded
Fat cells
  Internalization into target tissues: internalized into target tissues
Plasma glucose; five fasting Type II subjects
  Blood glucose level to which each subject was lowered: 80 to 110 mg/dL
Plasma glucose; Mean of subjects (mean total dose 18.7 I.U.), 0 min after injection
  Plasma Glucose: 245 mg/dL
Plasma glucose; Mean of subjects (mean total dose 18.7 I.U.), 40 min after injection
  Plasma Glucose: 235 mg/dL
Plasma glucose; Mean of subjects (mean total dose 18.7 I.U.), 80 min after injection
  Plasma Glucose: 221 mg/dL
Plasma glucose; Mean of subjects (mean total dose 18.7 I.U.), 120 min after injection
  Plasma Glucose: 205 mg/dL
Plasma glucose; Mean of subjects (mean total dose 18.7 I.U.), 160 min after injection
  Plasma Glucose: 188 mg/dL
Plasma glucose; Mean of subjects (mean total dose 18.7 I.U.), 200 min after injection
  Plasma Glucose: 167 mg/dL
Plasma glucose; Mean of subjects (mean total dose 18.7 I.U.), 280 min after injection
  Plasma Glucose: 129 mg/dL
Plasma glucose; Mean of subjects (mean total dose 18.7 I.U.), 300 min after injection
  Plasma Glucose: 113 mg/dL
Plasma glucose; Mean of subjects (mean total dose 18.7 I.U.), 360 min after injection
  Plasma Glucose: 102 mg/dL
Plasma glucose; Mean of subjects (mean total dose 18.7 I.U.), 400 min after injection
  Plasma Glucose: 95 mg/dL
Plasma glucose; Mean of subjects (mean total dose 18.7 I.U.), 440 min after injection
  Plasma Glucose: 92 mg/dL
Plasma glucose; Mean of subjects (mean total dose 18.7 I.U.), 480 min after injection
  Plasma Glucose: 96 mg/dL
Plasma glucose; subject (total dose 15.0 I.U.), 0 min after injection
  Plasma Glucose: 332 mg/dL
Plasma glucose; subject (total dose 15.0 I.U.), 40 min after injection
  Plasma Glucose: 328 mg/dL
Plasma glucose; subject (total dose 15.0 I.U.), 80 min after injection
  Plasma Glucose: 308 mg/dL
Plasma glucose; subject (total dose 15.0 I.U.), 120 min after injection
  Plasma Glucose: 288 mg/dL
Plasma glucose; subject (total dose 15.0 I.U.), 160 min after injection
  Plasma Glucose: 272 mg/dL
